Data taken from PMC3341351, “Down-Regulation of GABAA Receptor via Promiscuity with the Vasoactive Peptide Urotensin II Receptor. Potential Involvement in Astrocyte Plasticity” (PLoS ONE, 2012).

Tested on: α2β1γ1 GABAAR co-expressed with human UT
Experiment: Patch-clamp of Iso-evoked current in CHO-UT expressing α2β1γ1 GABAAR
Type: cell-based
Details: hUII 10^−13 to 10^−7 M; Iso 10^−4 M, 2 s; −60 mV
Description: CHO-K1 cell lines were obtained from American Type Culture Collection (Manassas, VA, USA). The human UT stable CHO (CHO-UT) was generously provided by Dr Christophe Dubessy (Inserm, Rouen University, France) et generated by CHO electroporation with 20 µg pIRES-neo2-UT DNA and 500 µg sterile sonicated salmon sperm DNA using the EasyJect One electroporation system (Equibio, Angleur, Belgium), followed by repetitive rounds of limiting dilution of cells in G-418 (400 µg/ml) for selection. Normal or stable CHO was grown in Ham-F12 medium supplemented with 10% FBS, 1% antibiotic-antimicotic solution and 2 mM glutamine, at 37°C in a humidified incubator with an atmosphere of 5% CO2. The stable CHO-UT medium was supplemented with the antibiotic G-418 (40 µg/ml).
For transfection, cells were trypsinized (0.05%), triturated in HamF-12 containing 10% FBS media, pelleted by centrifugation, resuspended in 100 µl solution V for nucleofection by an Amaxa Nucleofector Device (Köln, Germany; set to program U-016). Experiments were performed on normal CHO or on the stable CHO-UT cells and transiently transfected with combinations of cDNA encoding α2β3γ2, α2β3γ1, α2β1γ2, α2β3γ1, α2β3, β3γ2 (4 µg of cDNA total/transfection) GABAAR subunits. Cells were seeded on 14-mm poly-L-lysine-coated glass bottom insert dishes at 5×10^5 cells in a volume of 0.5 ml/dish. […]

“ETPDCFWKYCV (disulfide) [hUII, human urotensin II, synthesized by solid phase methodology]” was tested, and the “Inhibitory effect on Iso-evoked current, α2β1γ1” value was “less effective”.
